Test system: mouse mast cells P815
Assay: Inhibition of IL-4 and IL-13 secretion by compound 48/80-induced mouse mast cells P815
Type: cell-based
Set-up: key to IL-13 Concentration decrease percentage (%) / IL-4 Concentration decrease percentage (%): N represents that the results obtained have not decreased
Settings: synthetic peptides; for IL-4 Concentration decrease percentage (%) / IL-13 Concentration decrease percentage (%): P815 cells, compound 48/80 10 μg/mL; for effects in inhibiting secretion of IL-4 and IL-13 by cells: comparison within Table 3; for inhibiting allergic reactions: conclusion from Table 3
Experimental: Referring to the method disclosed in Example 3, an ability of each of the above synthetic sequences in inhibiting secretion of cytokines such as IL-4 and IL-13 is tested, the results are shown in Table 3, where N represents that the results obtained have not decreased.

ADALQLVLAV [Peptide 15]
IL-4 Concentration decrease percentage (%): 2.7%
IL-13 Concentration decrease percentage (%): 3.8%

DLDVVVALGI [Peptide 5]
effects in inhibiting secretion of IL-4 and IL-13 by cells: better effects
inhibiting allergic reactions: capable of inhibiting allergic reactions
IL-4 Concentration decrease percentage (%): 7.3%
IL-13 Concentration decrease percentage (%): 24.0%

DLQLAGLIGL [Peptide 1]
inhibiting allergic reactions: capable of inhibiting allergic reactions
IL-4 Concentration decrease percentage (%): 14.5%
IL-13 Concentration decrease percentage (%): 24.0%

EWLLGLLGI [Peptide 4]
inhibiting allergic reactions: capable of inhibiting allergic reactions
IL-4 Concentration decrease percentage (%): 19.9%
IL-13 Concentration decrease percentage (%): 35.4%

GLGDAKVALGI [Peptide 3]
effects in inhibiting secretion of IL-4 and IL-13 by cells: better effects
inhibiting allergic reactions: capable of inhibiting allergic reactions
IL-4 Concentration decrease percentage (%): 5.1%
IL-13 Concentration decrease percentage (%): 21.7%

GVSGGVLAAILG [Peptide 9]
IL-4 Concentration decrease percentage (%): 5.8%
IL-13 Concentration decrease percentage (%): 2.7%

KIVNQVNHLNPT [Peptide 12]
IL-4 Concentration decrease percentage (%): N
IL-13 Concentration decrease percentage (%): 10.8%

LVPWSIIGL [Peptide 14]
IL-4 Concentration decrease percentage (%): N
IL-13 Concentration decrease percentage (%): 9.8%

NKKQAAALGI [Peptide 8]
IL-4 Concentration decrease percentage (%): 1.0%
IL-13 Concentration decrease percentage (%): 11.4%

NPALQVIKV [Peptide 2]
effects in inhibiting secretion of IL-4 and IL-13 by cells: better effects
inhibiting allergic reactions: capable of inhibiting allergic reactions
IL-4 Concentration decrease percentage (%): 8.1%
IL-13 Concentration decrease percentage (%): 27.1%

PMALLAVLGL [Peptide 7]
IL-4 Concentration decrease percentage (%): 4.1%
IL-13 Concentration decrease percentage (%): 5.2%

PPYQGAPLM [Peptide 11]
IL-4 Concentration decrease percentage (%): 10.0%
IL-13 Concentration decrease percentage (%): N

QTAQALVLIG [Peptide 13]
IL-4 Concentration decrease percentage (%): N
IL-13 Concentration decrease percentage (%): 12.1%

TANAIGLAGLI [Peptide 10]
IL-4 Concentration decrease percentage (%): 9.3%
IL-13 Concentration decrease percentage (%): N

TRQKALAALGI [Peptide 16]
IL-4 Concentration decrease percentage (%): N
IL-13 Concentration decrease percentage (%): 5.9%

VGNSLAAVIIG [Peptide 6]
IL-4 Concentration decrease percentage (%): 0.9%
IL-13 Concentration decrease percentage (%): 2.7%
